# Measured values reported in patent US6495525B1, “VLA-4 inhibitor: oMePUPA-V” (Biogen, Inc., priority 1998, dated 2002).
# Legend:
# [1] = tested on: Ascaris suum-sensitive sheep; test: Ovine model of allergic pulmonary inflammation (Ascaris suum allergen challenge); format: in vivo; settings: for EAR (ΔSLR × h): 0-4 h; for LAR (ΔSLR × h): 4-8 h; for PC400 (Post/Pre): carbachol 24 h post-challenge; for early and late airway response, hyperresponsiveness to carbachol (in words): aerosol 2 h before challenge
# Text: Allergic sheep weighing between 27-50 kg were used. […] The sheep were conscious and were restrained in a modified shopping cart in the prone position with their heads immobilized. After topical anesthesia of the nasal passages with 2% lidocaine, a balloon catheter was advanced through one nostril into the lower esophagus. The animals were intubated with a cuffed endotracheal tube through the other nostril using a flexible fiberoptic bronchoscope as a guide. All protocols used in this study were approved by the Mount Sinai Medical Center Animal Research Committee, which is responsible for assuring the humane care and use of experimental animals. Pleural pressure was estimated using an esophageal balloon catheter (filled with 1 mL of air), which was positioned 5 to 10 cm from the gastroesophageal-junction. In this position, the end expiratory pleural pressure ranged between −2 to −5-cmH2O. Once the balloon was placed, it was secured so that it remained in the same position for the duration of the experiment. Lateral pressure in the trachea was measured with a sidehole catheter (inner diameter, 2.5 mm) advanced through and positioned distal to the tip of the endotracheal tube.
# The tracheal and pleural pressure catheters were connected to a differential pressure transducer (MP45, Validyne, Northridge, Calif.) for the measurement of transpulmonary pressure which was defined as the difference between tracheal and pleural pressure. Airflow was measured by connecting the proximal end of the endotracheal tube to a pneumotachograph (Fleisch, Dyna Sciences, Inc., Blue Bell, Pa.). The signals of transpulmonary pressure and flow were recorded on a multichannel physiological recorder which was linked to a 80-386 DOS Personal Computer for on-line calculation of mean pulmonary flow resistance (RL) by dividing the change in transpulmonary pressure by the change in flow at mid-tidal volume (obtained by digital integration). The mean of at least five breaths, free of swallowing artifact, was used to obtain RL in cmH2O/L/sec. Immediately after the measurement of RL, thoracic gas volume (Vtg) was measured in a constant-volume body plethysmograph to obtain specific lung resistance (SRL=RL×Vtg) in L×cmH2O/L/sec.
# All liquid-dose aerosols were generated using a disposable medical air-jet nebulizer (Raindrop®, Puritan Bennett, Lenexa, Kans.) that provided an aerosol with a mass median aerodynamic diameter of 3.2 μm as determined by an Andersen cascade impactor. The nebulizer was connected to a dosimeter system, consisting of a solenoid valve and a source of compressed air (20 psi). The output of the nebulizer was directed into a plastic T-piece, one end of which was connected to the inspiratory port of a piston respirator (Harvard Apparatus, S. Natick, Mass.). The solenoid valve was activated for one second at the beginning of the inspiratory cycle of the respirator. Aerosols were delivered at a tidal volume of 500 mL and a rate of 20 breaths per minute. To assess bronchial responsiveness, cumulative concentration response curves to carbachol were performed by measuring SRL immediately after inhalation of buffer and after each consecutive administration of 10 breaths of increasing concentrations of carbachol (0.25, 0.5, 1.0, 2.0 and 4.0% w/v in buffered saline). The provocation test was discontinued when SRL increased over 400% from the post-saline value or after the highest carbachol concentration had been administered. Bronchial responsiveness was assessed by determining the cumulative carbachol concentration (in breath units) that increased SRL by 400% over the post-saline value (PC400) by interpolation from the dose response curve. One breath unit (BU) was defined as one breath of a 1% w/v carbachol nebulized solution.
# Doses of oMePUPA-V were dissolved in either ethanol:normal saline 1:2, ethanol:200 mM sodium phosphate 1:5 or Tris buffer. When using Tris, any required dilution was performed using normal saline. […]
# [2] = Oral availability; settings: in vivo
# [3] = Bulk / drug substance stability (HPLC); format: physicochemical
# Protocol: At four weeks, one or two degradation peaks became detectable at 40° C. and 50° C., but the level of each impurity peak was still less than 0.02%.
# [4] = target: VLA-4 (Homo sapiens, UniProt P05556+P13612); test: CS1 Cell Adhesion Assay, Jurkat cells to CS1/BSA conjugate; format: cell-based; design: endogenous in cells; host or cells: Jurkat (human T cell line)
# Protocol: The peptide NH2-cysteine-tyrosine-CS-1 was synthesized and coupled to BSA-SMCC (SMCC is a heterobifunctional crosslinker which reacts with free amino groups on BSA and the sole cysteine of the synthetic peptide) at a CS1/BSA ratio of 10:1. Wells were coated overnight with 100 μL of conjugate diluted to a final concentration of 1 ug/ml. The next day the wells were blocked with BSA in PBS for one hour and then washed three times.
# The human T cell line, Jurkat, was labeled with 2 μM BCECF-AM, a fluorescent dye (2′, 7′, bis-(2-carboxyethyl)-5 and -6) carboxy fluorescein acetoxymethyl ester (Molecular Probes Inc., Eugene, Oregon; catalog #B-1150) that is internalized and deesterified thus trapping the dye within live cells. Jurkat cells (1×10^5 cells/well) in buffer containing 1 mM Mn^+2 were added to the coated plates in the presence of three-fold serial dilutions of inhibitor. Each concentration was assayed in duplicate. After 30 minutes at room temperature, the plates were inverted and washed three times or until no cells were adherent to control wells coated with BSA alone. CS1-adherent cells were quantitated in a Cytofluor fluorescent platereader using an excitation wavelength of 485 nm and an emission wavelength of 530 nm.
# Cells adhered to CS1/BSA in the absence of compound served as the 0% inhibition control whereas cells adhering to BSA alone served as the 100% inhibition control. IC50's were calculated using Deltagraph software, version 5.
# [5] = Formulated / solution stability (HPLC); format: physicochemical
# [6] = target: T1, human ACE (Homo sapiens, UniProt P12821); test: ACE protease activity (Cerep, HUVEC, 3H-HGG conversion); format: biochemical
# T1 construct: The source of ACE proteases was human endothelial cells (HUVEC); host or cells: HUVEC (human endothelial cells)
# Text: The source of ACE proteases was human endothelial cells (HUVEC). ^3H-HGG, added to HUVEC, was converted to ^3H-hippuric acid and glycylglycine by ACE.
# [7] = 0.01 mg aerosol, EtOH:NS, 2 hours prior to allergen challenge
# [8] = 0.03 mg aerosol, EtOH:NS, 2 hours prior to allergen challenge
# [9] = 0.03 mg once daily for 4 days, EtOH:NS, challenge 24 h after last dose
# [10] = 0.03 mg once daily for 4 days, Tris:NS, challenge 24 h after last dose
# [11] = 0.10 mg aerosol, EtOH:NS, 2 hours prior to allergen challenge
# [12] = 1.00 mg aerosol, EtOH:PBS, 2 hours prior to allergen challenge
# [13] = 3.00 mg aerosol, EtOH:PBS, 2 hours prior to allergen challenge
# Chain of VLA-4 (P13612 34-1032): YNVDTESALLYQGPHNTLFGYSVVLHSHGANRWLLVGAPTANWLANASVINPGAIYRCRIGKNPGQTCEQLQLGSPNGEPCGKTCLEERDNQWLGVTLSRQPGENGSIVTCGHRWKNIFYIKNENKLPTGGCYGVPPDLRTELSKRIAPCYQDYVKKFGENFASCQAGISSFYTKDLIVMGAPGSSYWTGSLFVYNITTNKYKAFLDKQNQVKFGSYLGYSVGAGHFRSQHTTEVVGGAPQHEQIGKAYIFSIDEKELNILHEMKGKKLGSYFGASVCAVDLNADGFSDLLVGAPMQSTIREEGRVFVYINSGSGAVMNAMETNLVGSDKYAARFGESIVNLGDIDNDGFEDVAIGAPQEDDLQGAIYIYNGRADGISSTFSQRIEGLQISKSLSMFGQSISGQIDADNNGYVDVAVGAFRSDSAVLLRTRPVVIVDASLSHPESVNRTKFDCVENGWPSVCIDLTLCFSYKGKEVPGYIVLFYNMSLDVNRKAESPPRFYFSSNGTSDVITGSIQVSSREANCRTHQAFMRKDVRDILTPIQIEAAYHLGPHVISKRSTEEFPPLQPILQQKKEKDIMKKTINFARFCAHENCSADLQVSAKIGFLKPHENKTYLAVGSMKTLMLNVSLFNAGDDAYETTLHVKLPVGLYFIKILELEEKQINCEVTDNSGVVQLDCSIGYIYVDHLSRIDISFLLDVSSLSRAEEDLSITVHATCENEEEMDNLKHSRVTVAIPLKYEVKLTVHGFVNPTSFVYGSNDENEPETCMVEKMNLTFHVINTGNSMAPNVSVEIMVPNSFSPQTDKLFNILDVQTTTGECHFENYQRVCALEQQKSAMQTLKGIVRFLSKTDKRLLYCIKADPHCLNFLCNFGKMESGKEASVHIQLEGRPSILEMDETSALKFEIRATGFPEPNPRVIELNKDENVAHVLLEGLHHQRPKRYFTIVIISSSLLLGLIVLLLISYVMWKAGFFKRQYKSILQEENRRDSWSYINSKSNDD
# Chain of VLA-4 (P05556 21-798): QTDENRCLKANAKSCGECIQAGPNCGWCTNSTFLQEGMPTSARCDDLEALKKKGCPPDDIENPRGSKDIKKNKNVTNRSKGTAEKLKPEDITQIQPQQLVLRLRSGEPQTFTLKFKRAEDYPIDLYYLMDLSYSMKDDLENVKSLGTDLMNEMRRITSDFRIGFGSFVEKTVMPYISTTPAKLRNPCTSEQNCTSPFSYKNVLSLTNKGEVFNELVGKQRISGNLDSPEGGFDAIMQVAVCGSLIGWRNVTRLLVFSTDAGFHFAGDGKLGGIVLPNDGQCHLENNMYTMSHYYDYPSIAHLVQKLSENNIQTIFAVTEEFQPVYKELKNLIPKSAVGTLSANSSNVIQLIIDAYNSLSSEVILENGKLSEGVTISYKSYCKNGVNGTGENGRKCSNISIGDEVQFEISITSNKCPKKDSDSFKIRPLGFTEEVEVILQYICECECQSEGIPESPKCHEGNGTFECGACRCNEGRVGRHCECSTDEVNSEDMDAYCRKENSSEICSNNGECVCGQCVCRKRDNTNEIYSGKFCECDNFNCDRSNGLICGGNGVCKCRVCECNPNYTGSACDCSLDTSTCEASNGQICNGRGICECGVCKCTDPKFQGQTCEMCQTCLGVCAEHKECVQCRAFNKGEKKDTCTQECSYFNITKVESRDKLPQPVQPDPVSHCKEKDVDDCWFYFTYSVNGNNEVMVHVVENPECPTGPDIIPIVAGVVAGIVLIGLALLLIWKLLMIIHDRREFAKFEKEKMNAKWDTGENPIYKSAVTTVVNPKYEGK
# T1 sequence (P12821 30-1306): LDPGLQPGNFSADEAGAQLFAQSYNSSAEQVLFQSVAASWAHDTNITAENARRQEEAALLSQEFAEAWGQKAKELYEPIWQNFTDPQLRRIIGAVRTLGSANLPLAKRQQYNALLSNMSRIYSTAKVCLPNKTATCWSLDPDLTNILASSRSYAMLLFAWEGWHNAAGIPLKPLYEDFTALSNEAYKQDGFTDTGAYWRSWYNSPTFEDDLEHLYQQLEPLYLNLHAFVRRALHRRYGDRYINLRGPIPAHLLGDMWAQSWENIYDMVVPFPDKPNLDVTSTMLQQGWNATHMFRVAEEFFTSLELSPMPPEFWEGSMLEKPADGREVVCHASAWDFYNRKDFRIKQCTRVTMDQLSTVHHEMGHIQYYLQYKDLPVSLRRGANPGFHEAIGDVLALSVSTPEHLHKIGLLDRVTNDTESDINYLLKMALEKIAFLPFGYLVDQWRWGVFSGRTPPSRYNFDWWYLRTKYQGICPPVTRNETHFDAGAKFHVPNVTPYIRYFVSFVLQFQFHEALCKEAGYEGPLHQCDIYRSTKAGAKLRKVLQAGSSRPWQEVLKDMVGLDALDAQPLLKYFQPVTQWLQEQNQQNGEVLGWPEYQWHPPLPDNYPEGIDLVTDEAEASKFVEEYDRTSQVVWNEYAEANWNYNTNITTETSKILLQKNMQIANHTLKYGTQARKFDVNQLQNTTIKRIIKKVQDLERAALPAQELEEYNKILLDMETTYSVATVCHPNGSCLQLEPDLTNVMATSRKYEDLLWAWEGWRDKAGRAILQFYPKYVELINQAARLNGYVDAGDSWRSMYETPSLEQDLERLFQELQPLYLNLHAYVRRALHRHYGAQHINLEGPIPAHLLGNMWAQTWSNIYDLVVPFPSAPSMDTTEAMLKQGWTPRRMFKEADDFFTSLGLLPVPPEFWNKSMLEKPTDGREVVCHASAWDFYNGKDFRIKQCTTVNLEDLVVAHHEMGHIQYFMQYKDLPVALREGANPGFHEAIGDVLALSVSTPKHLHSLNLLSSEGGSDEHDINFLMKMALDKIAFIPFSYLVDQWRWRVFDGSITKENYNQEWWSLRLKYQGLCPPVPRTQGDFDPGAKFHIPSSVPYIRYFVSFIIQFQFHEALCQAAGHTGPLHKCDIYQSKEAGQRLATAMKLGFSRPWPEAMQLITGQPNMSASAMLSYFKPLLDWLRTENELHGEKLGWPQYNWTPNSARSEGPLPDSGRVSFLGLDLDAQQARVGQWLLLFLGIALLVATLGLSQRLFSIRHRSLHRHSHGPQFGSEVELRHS
smiles,measurement,setting,value
Cc1ccccc1NC(=O)Nc1ccc(CC(=O)N2CCC[C@H]2C(=O)N[C@H](C)CC(=O)O)cc1 [oMePUPA-V],EAR (ΔSLR × h),[1]; [7],6.87 ± 0.05 ΔSLR × h
same,LAR (ΔSLR × h),[1]; [7],5.11 ± 1.46 ΔSLR × h
same,PC400 (Post/Pre),[1]; [7],0.44 ± 0.04
same,EAR (ΔSLR × h),[1]; [8],10.62 ± 3.91 ΔSLR × h
same,LAR (ΔSLR × h),[1]; [8],3.98 ± 0.23 ΔSLR × h
same,PC400 (Post/Pre),[1]; [8],0.43 ± 0.00
same,EAR (ΔSLR × h),[1]; [9],1.53 ± 0.34 ΔSLR × h
same,LAR (ΔSLR × h),[1]; [9],0.59 ± 0.16 ΔSLR × h
same,PC400 (Post/Pre),[1]; [9],1.06 ± 0.04
same,EAR (ΔSLR × h),[1]; [10],1.40 ± 0.35 ΔSLR × h
same,LAR (ΔSLR × h),[1]; [10],0.02 ± 0.06 ΔSLR × h
same,PC400 (Post/Pre),[1]; [10],1.04 ± 0.04
same,"protection against EAR, LAR and hyperresponsiveness (in words)","[1]; 0.03 mg once daily for 4 days, antigen challenge 24 h after the last dose",protective
same,EAR (ΔSLR × h),[1]; [11],2.54 ± 0.74 ΔSLR × h
same,LAR (ΔSLR × h),[1]; [11],0.67 ± 0.17 ΔSLR × h
same,PC400 (Post/Pre),[1]; [11],1.18 ± 0.11
same,EAR (ΔSLR × h),[1]; [12],2.14 ± 0.70 ΔSLR × h
same,LAR (ΔSLR × h),[1]; [12],0.27 ± 0.34 ΔSLR × h
same,PC400 (Post/Pre),[1]; [12],1.05 ± 0.11
same,EAR (ΔSLR × h),[1]; [13],2.47 ± 0.62 ΔSLR × h
same,LAR (ΔSLR × h),[1]; [13],0.68 ± 0.07 ΔSLR × h
same,PC400 (Post/Pre),[1]; [13],1.07 ± 0.08
same,"Minimum effective dose in sheep model, repeat-dose","[1]; daily for 4 days, antigen challenge 24 hours after the last dose",1 µg/kg
same,"early and late airway response, hyperresponsiveness to carbachol (in words)",[1]; doses of 0.01 and 0.03 mg,did not inhibit early or late airway response
same,"early and late airway response, hyperresponsiveness to carbachol (in words)","[1]; doses of 0.1, 1 and 3 mg",inhibited the early airway response and maximally inhibited the late airway response
same,"Minimum effective dose in sheep model, single dose",[1]; single nebulized dose 2 hours before antigen challenge,3 µg/kg
same,Oral availability,[2],<1%
same,"Bulk stability (40° C., 75% RH), time stable",[3],stable >4 wk
same,IC50,"[4]; 1 mM MnCl2, read-out: IC50 ± SD, Jurkat cell CS1 adhesion",22 nM
same,blocking of Jurkat cell adhesion to CS1 (in words),[4]; in the presence of Mn+2,completely block
same,"Formulated stability (40° C.), time stable",[5],stable >4 wk
same,ACE activity,[6],clean
same,inhibition of human ACE protease activity,"[6]; at 10 μM, HUVEC",no inhibition
